In patent US7153855B2, “Pyrazolopyridinyl pyrimidine therapeutic compounds” (SmithKline Beecham Corporation, priority 2001, dated 2006):

System: HSV-1
Assay: HSV-1 infection of Vero 76 cells, viral DNA detected by hybridization capture (chemiluminescence)
Type: cell-based
Settings: Human alphaherpesvirus 1; HSV-1 in Vero 76 cells, MOI=0.001, compounds incubated 40–48 hours at 37° C.; read-out: IC50
Source text: In the following example, “MEM” means Minimal Essential Media; “FBS” means Fetal Bovine Serum; “NP40” and “Igepal” are detergents; “MOI” means Multiplicity of Infection; “NaOH” means sodium hydroxide; “MgCl2” means magnesium chloride; “dATP” means deoxyadenosine 5′ triphosphate; “dUTP” means deoxyuridine 5′ triphosphate; “dCTP” means dexoxycytidine 5′ triphosphate; “dGTP” means deoxyguanosine 5′ triphosphate; “GuSCN” means Guanidinium thiocyanate; “EDTA” means ethylenediamine tetraacetic acid; “TE” means Tris-EDTA; “SCC” means sodium chloride/sodium citrate; “APE” means a solution of ammonia acetate, ammonia phosphate, EDTA; “PBS” means phosphate buffered saline; and “HRP” means horseradish peroxidase.
Vero 76 cells were maintained in MEM with Earle's salts, L-glutamine, 8% FBS (Hyclone, A-1111-L) and 100 units/mL Penicillin-100 μg/mL Streptomycin. For assay conditions, FBS was reduced to 2%. Cells are seeded into 96-well tissue culture plates at a density of 5×10^4 cells/well after being incubated for 45 min at 37° C. in the presence of HSV-1 or HSV-2 (MOI=0.001). Test compounds are added to the wells and the plates are incubated at 37° C. for 40–48 hours. Cell lysates are prepared as follows: media was removed and replaced with 150 μL/well 0.2 N NaOH with 1% Igepal CA 630 or NP-40. Plates were incubated up to 14 days at room temperature in a humidified chamber to prevent evaporation.
For the detection probe, a gel-purified, digoxigenin-labeled, 710-bp PCR fragment of the HSV UL-15 sequence was utilized. PCR conditions included 0.5 μM primers, 180 μM dTTP, 20 μM dUTP-digoxigenin (Boehringer Mannheim 1558706), 200 μM each of dATP, dCTP, and dGTP, 1×PCR Buffer II (Perkin Elmer), 2.5 mM MgCl2, 0.025 units/μL of AmpliTaq Gold polymerase (Perkin Elmer), and 5 ng of gel-purified HSV DNA per 100 μL Extension conditions were 10 min at 95° C., followed by 30 cycles of 95° C. for 1 min, 55° C. for 30 sec, and 72° C. for 2 min. The amplification was completed with a 10-min incubation at 72° C. Primers were selected to amplify a 728 bp probe spanning a section of the HSV1 UL15 open reading frame (nucleotides 249–977). Single-stranded transcripts were purified with Promega M13 Wizard kits. The final product was mixed 1:1 with a mixture of 6 M GuSCN, 100 mM EDTA and 200 μg/mL herring sperm DNA and stored at 4° C.
The capture DNA plasmid (HSV UL13 region in pUC) was linearized by cutting with Xba I, denatured for 15 min at 95° C. and diluted immediately into Reacti-Bind DNA Coating Solution (Pierce, 17250, diluted 1:1 with TE buffer, pH 8) at 1 ng/μL 75 μL/well were added to Corning (#3922 or 9690) white 96-well plates and incubated at room temperature for at least 4 hrs before washing twice with 300 μL/well 0.2×SSC/0.05% Tween-20 (SSC/T buffer). The plates were then incubated overnight at room temperature with 150 μL/well 0.2 N NaOH, 1% IGEPAL and 10 μg/mL herring sperm DNA.
Twenty-seven (27) μL of cell lysate was combined with 45 μL of hybridization solution (final concentration: 3M GuSCN, 50 mM EDTA, 100 μg/ml salmon sperm DNA, 5×Denhardt's solution, 0.25×APE, and 5 ng of the digoxigenin-labeled detection probe). APE is 1.5 M NH4-acetate, 0.15 M NH4H2 phosphate, and 5 mM EDTA adjusted to pH 6.0. Mineral oil (50 μL) was added to prevent evaporation. The hybridization plates were incubated at 95° C. for 10 minutes to denature the DNA, then incubated at 42° C. overnight. The wells were washed 6× with 300 μL/well SSC/T buffer then incubated with 75 μL/well anti-digoxigenin-HRP-conjugated antibody (Boehringer Mannheim 1207733, 1:5000 in TE) for 30 min at room temperature. The wells were washed 6× with 300 μL/well with PBS/0.05% Tween-20 before 75 μL/well SuperSignal LBA substrate (Pierce) was added. The plates were incubated at room temperature for 30 minutes and chemiluminescence was measured in a Wallac Victor reader.
The following results were obtained for HSV-1.

| SMILES | IC50 [µM] |
| --- | --- |
| COc1ccc(-c2nn3c(NCCNS(C)(=O)=O)cccc3c2-c2ccnc(NC3CCCC3)n2)cc1 [Example 95, N-(2-{[3-[2-(Cyclopentylamino)-4-pyrimidinyl]-2-(4-methoxy-phenyl)pyrazolo[1,5-a]pyridin-7-yl]amino}ethyl)methanesulfonamide] | 0.3 |
| COc1ccc(-c2nn3c(N4CCOCC4)cccc3c2-c2ccnc(NC3CCCC3)n2)cc1 [Example 61, N-Cyclopentyl-4-[2-(4-methoxyphenyl)-7-(4-morpholinyl)pyrazolo[1,5-a]pyridin-3-yl]-2-pyrimidinamine] | 0.2 |
| c1ccc(-c2nn3c(NC4CCCC4)cccc3c2-c2ccnc(NC3CCCC3)n2)cc1 [Example 38, N-Cyclopentyl-3-[2-(cyclopentylamino)-4-pyrimidinyl]-2-phenylpyrazolo-[1,5-a]pyridin-7-amine] | 0.3 |
| c1ccc(-c2cccc(-c3nn4c(N5CCCC5)cccc4c3-c3ccnc(NC4CCCC4)n3)c2)cc1 [Example 30, 4-[2-[1,1′-Biphenyl]-3-yl-7-(1-pyrrolidinyl)pyrazolo[1,5-a]pyridin-3-yl]-N-cyclopentyl-2-pyrimidinamine] | 0.8 |
| Clc1cccc(-c2nn3c(NC4CC4)cccc3c2-c2ccnc(NC3CCCC3)n2)c1 [Example 101, 2-(3-Chlorophenyl)-3-[2-(cyclopentylamino)-4-pyrimidinyl]-N-cyclopropylpyrazolo[1,5-a]pyridin-7-amine] | 0.2 |
| C=CCOc1ccc(-c2nn3c(NC4CC4)cccc3c2-c2ccnc(NC3CC3)n2)cc1 [Example 73, 2-[4-(Allyloxy)phenyl]-N-cyclopropyl-3-[2-(cyclopropylamino)-4-pyrimidinyl]pyrazolo[1,5-a]pyridin-7-amine] | 2 |
| c1ccc(-c2cccc(-c3nn4c(NC5CCCC5)cccc4c3-c3ccnc(NC4CCCC4)n3)c2)cc1 [Example 29, 2-[1,1′-Biphenyl]-3-yl-N-cyclopentyl-3-[2-(cyclopentylamino)-4-pyrimidinyl]pyrazolo[1,5-a]pyridin-7-amine] | 3 |
| Nc1cccc(-c2nn3c(NC4CCCC4)cccc3c2-c2ccnc(NC3CCCC3)n2)c1 [Example 34, 2-(3-Aminophenyl)-N-cyclopentyl-3-[2-(cyclopentylamino)-4-pyrimidinyl]pyrazolo[1,5-a]pyridin-7-amine] | 0.6 |
| COc1ccc(-c2nn3c(NC4CC4)cccc3c2-c2ccnc(NC3CCCC3)n2)cc1 [Example 60, 3-[2-(Cyclopentylamino)-4-pyrimidinyl]-N-cyclopropyl-2-(4-methoxyphenyl)pyrazolo[1,5-a]pyridin-7-amine] | 0.4 |
| Fc1cccc(-c2nn3c(NC4CC4)cccc3c2-c2ccnc(NC3CCCC3)n2)c1 [Example 105, 3-[2-(Cyclopentylamino)-4-pyrimidinyl]-N-cyclopropyl-2-(3-fluorophenyl)pyrazolo[1,5-a]pyridin-7-amine] | 0.6 |
| CCCCNc1nccc(-c2c(-c3ccc(N(CC4CC4)CC4CC4)cc3)nn3c(NCCCC)cccc23)n1 [Example 21, 2-{4-[Bis(cyclopropylmethyl)amino]phenyl}-N-butyl-3-[2-(butylamino)-4-pyrimidinyl]pyrazolo[1,5-a]pyridin-7-amine] | 15 |
| COc1ccc(-c2nn3c(NC4CCCC4)cccc3c2-c2ccnc(NC3CCCC3)n2)cc1Br [Example 42, N-{4-[2-(3-Bromo-4-methoxyphenyl)-7-(cyclopentylamino)pyrazolo[1,5-a]pyridin-3-yl]-2-pyrimidinyl}-N-cyclopentylamine] | 1.4 |
| COc1ccc(-c2nn3c(NCCN4CCOCC4)cccc3c2-c2ccnc(NC3CCCC3)n2)cc1 [Example 59, 3-[2-(Cyclopentylamino)-4-pyrimidinyl]-2-(4-methoxyphenyl)-N-[2-(4-morpholinyl)ethyl]pyrazolo[1,5-a]pyridin-7-amine] | 0.4 |
| Brc1ccccc1-c1nn2c(NC3CCCC3)cccc2c1-c1ccnc(NC2CCCC2)n1 [Example 24, 2-(2-Bromophenyl)-N-cyclopentyl-3-[2-(cyclopentylamino)-4-pyrimidinyl]pyrazolo[1,5-a]pyridin-7-amine] | 0.9 |
| COc1cccc(-c2nn3c(NC(C)C)cccc3c2-c2ccnc(NC3CCCC3)n2)c1 [Example 52, 3-[2-(Cyclopentylamino)-4-pyrimidinyl]-N-isopropyl-2-(3-methoxyphenyl)pyrazolo[1,5-a]pyridin-7-amine] | 0.56 |
| c1cc(OCC2CC2)cc(-c2nn3c(NC4CCCC4)cccc3c2-c2ccnc(NC3CCCC3)n2)c1 [Example 55, N-Cyclopentyl-3-[2-(cyclopentylamino)-4-pyrimidinyl]-2-[3-(cyclopropylmethoxy)phenyl]pyrazolo[1,5-a]pyridin-7-amine] | 0.1 |
| c1ccc(Oc2ccc(-c3nn4c(NC5CCCC5)cccc4c3-c3ccnc(NC4CCCC4)n3)cc2)cc1 [Example 13, N-Cyclopentyl-3-[2-(cyclopentylamino)-4-pyrimidinyl]-2-(4-phenoxyphenyl)pyrazolo[1,5-a]pyridin-7-amine] | 1 |
| COc1cccc(-c2nn3c(Cl)cccc3c2-c2ccnc(NC3CCCC3)n2)c1 [Example 50, 4-[7-Chloro-2-(3-methoxyphenyl)pyrazolo[1,5-a]pyridin-3-yl]-N-cyclopentyl-2-pyrimidinamine] | 2.5 |
| COC(=O)CNc1cccc2c(-c3ccnc(NC4CCCC4)n3)c(-c3ccc(OC)cc3)nn12 [Example 79, Methyl N-[3-[2-(cyclopentylamino)pyrimidin-4-yl]-2-(4-methoxyphenyl)pyrazolo[1,5-a]pyridin-7-yl]glycinate] | 2.5 |
| Clc1cccc(-c2nn3c(NC4CCCC4)cccc3c2-c2ccnc(NC3CCCC3)n2)c1 [Example 57, 2-(3-Chlorophenyl)-N-cyclopentyl-3-[2-(cyclopentylamino)-4-pyrimidinyl]pyrazolo[1,5-a]pyridin-7-amine] | 0.2 |
| [N-]=[N+]=Nc1cccc(-c2nn3c(NC4CCCC4)cccc3c2-c2ccnc(NC3CCCC3)n2)c1 [Example 93, 2-(3-Azidophenyl)-N-cyclopentyl-3-[2-(cyclopentylamino)pyrimidin-4-yl]pyrazolo[1,5-a]pyridin-7-amine] | 0.7 |
| Nc1nccc(-c2c(-c3ccc(O)cc3)nn3c(N4CCCC4)cccc23)n1 [Example 6, 4-[3-(2-Amino-4-pyrimidinyl)-7-(1-pyrrolidinyl)pyrazolo[1,5-a]pyridin-2-yl]phenol] | 5 |
| COCCNc1cccc2c(-c3ccnc(NC4CC4)n3)c(-c3ccc(OC)cc3)nn12 [Example 64, 3-[2-(Cyclopropylamino)-4-pyrimidinyl]-N-(2-methoxyethyl)-2-(4-methoxyphenyl)pyrazolo[1,5-a]pyridin-7-amine] | 0.3 |
| Oc1ccc(-c2nn3c(NC4CCCC4)cccc3c2-c2ccnc(NC3CCCC3)n2)cc1 [Example 4, 4-{7-(Cyclopentylamino)-3-[2-(cyclopentylamino)-4-pyrimidinyl]pyrazolo-[1,5-a]pyridin-2-yl}phenol] | 1 |
| COc1cccc(-c2nn3c(NC4CCCC4)cccc3c2-c2ccnc(NC3CCCC3)n2)c1 [Example 51, N-Cyclopentyl-3-[2-(cyclopentylamino)-4-pyrimidinyl]-2-(3-methoxyphenyl)pyrazolo[1,5-a]pyridin-7-amine] | 0.21 |
